In BindingDB's records for doi:10.1016/j.bmc.2019.115091 (Kyowa Kirin, 2019):

Experiment: Inhibition of chemR23 expressed in human CAL1 cells assessed as reduction in chemerin-induced chemotaxis incubated for 4 hrs by cell counting based CellTiter-Glo assay

IC50: 380 nM
Compound: CCCCN(c1nc2cc(C(=O)NC)ccc2o1)[C@H](C)c1ccc(-c2ccccc2-c2nnn[nH]2)cc1
